From patent US11382918B2, “Methods for treating Huntington's Disease” (PTC Therapeutics, Inc., priority 2017, dated 2022)
Structures can show the parent of a compound that is named as a salt.

Test system: Endogenous Huntingtin Protein (HTT)
Test: Endogenous Huntingtin Protein Assay (ELISA-based MSD electrochemiluminescence)
Format: cell-based
Conditions: Table 1
Procedure, shortened: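 HTT protein in lysates was measured by electrochemiluminescence on the MSD platform. Rabbit monoclonal 5656S followed by SULFO-TAG anti-rabbit antibody served for detection after overnight 4 °C capture with MAB2166 or the polyglutamine-directed MW1 antibody.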

Row | SMILES | IC50 [µM]
1 | CCc1nc(C)cn2nc(-c3cc(=O)n4cc(C5CCN(C)CC5)cc(C)c4n3)cc12 [compound 774, 2-(4-ethyl-6-methylpyrazolo[1,5-a]pyrazin-2-yl)-9-methyl-7-(1-methylpiperidin-4-yl)-4H-pyrido[1,2-a]pyrimidin-4-one] | 3 to 33
2 | Cc1csc(-c2cc(=O)n3cc(N4CCN[C@@H](C)C4)ccc3n2)n1 [compound 162, 7-[(3S)-3-methylpiperazin-1-yl]-2-(4-methyl-1,3-thiazol-2-yl)-4H-pyrido[1,2-a]pyrimidin-4-one] | 3 to 33
3 | Cc1nc(O)c2cc(-c3cc(=O)n4cc(N5CCNCC5)ccc4n3)ccc2n1 [compound 840, 2-(4-hydroxy-2-methylquinazolin-6-yl)-7-(piperazin-1-yl)-4H-pyrido[1,2-a]pyrimidin-4-one] | 3 to 33
4 | CCN1CCC(c2cc(C)c3nc(-c4ccc5nn(C)cc5c4)cc(=O)n3c2)CC1 [compound 719, 7-(1-ethylpiperidin-4-yl)-9-methyl-2-(2-methyl-2H-indazol-5-yl)-4H-pyrido[1,2-a]pyrimidin-4-one] | < 0.1
5 | Cc1cn2nc(-c3cc(=O)n4cc(C5CCNCC5)ncc4n3)cc2c(C)n1 [compound 502, 2-(4,6-dimethylpyrazolo[1,5-a]pyrazin-2-yl)-7-(piperidin-4-yl)-4H-pyrazino[1,2-a]pyrimidin-4-one] | < 0.1
6 | CCCc1nc(C)cn2nc(-c3cc(=O)n4cc(C5CCNCC5)ccc4n3)cc12 [compound 766, 2-(6-methyl-4-propylpyrazolo[1,5-a]pyrazin-2-yl)-7-(piperidin-4-yl)-4H-pyrido[1,2-a]pyrimidin-4-one] | 0.5 to 1
7 | CCN1CCC(c2cn3c(=O)cc(-c4cc5c(C)nc(C)cn5c4)nc3c(C)n2)CC1 [compound 876, 2-(1,3-dimethylpyrrolo[1,2-a]pyrazin-7-yl)-7-(1-ethylpiperidin-4-yl)-9-methyl-4H-pyrazino[1,2-a]pyrimidin-4-one] | 1 to 3
8 | Cc1cn2nc(-c3cc(=O)n4cc(N5CCNCC5)cc(C)c4n3)cc2c(C)n1 [compound 720, 2-(4,6-dimethylpyrazolo[1,5-a]pyrazin-2-yl)-9-methyl-7-(piperazin-1-yl)-4H-pyrido[1,2-a]pyrimidin-4-one] | 3 to 33
9 | CCc1nc(C)cn2cc(-c3cc(=O)n4cc(N5CCCNCC5)ccc4n3)cc12 [compound 749, 7-(1,4-diazepan-1-yl)-2-(1-ethyl-3-methylpyrrolo[1,2-a]pyrazin-7-yl)-4H-pyrido[1,2-a]pyrimidin-4-one] | 3 to 33
10 | Cc1cn2cc(-c3cc(=O)n4cc(N5CCN6CCC[C@H]6C5)ccc4n3)cc(F)c2n1 [compound 271, 2-(8-fluoro-2-methylimidazo[1,2-a]pyridin-6-yl)-7-[(8aS)-hexahydropyrrolo[1,2-a]pyrazin-2(1H)-yl]-4H-pyrido[1,2-a]pyrimidin-4-one] | 1 to 3
11 | Cc1cc(N(C)C2CC(C)(C)NC(C)(C)C2)cn2c(=O)cc(-c3ccc4nn(C)cc4c3)nc12 [compound 853, 9-methyl-2-(2-methyl-2H-indazol-5-yl)-7-[methyl(2,2,6,6-tetramethylpiperidin-4-yl)amino]-4H-pyrido[1,2-a]pyrimidin-4-one] | 3 to 33
12 | Cc1nc(C2CCNCC2)cn2c(=O)cc(-c3cc(F)c4nn(C)cc4c3)nc12 [compound 869, 2-(7-fluoro-2-methyl-2H-indazol-5-yl)-9-methyl-7-(piperidin-4-yl)-4H-pyrazino[1,2-a]pyrimidin-4-one] | < 0.1
13 | C[C@H]1CN(c2ccc3nc(-c4ccc5c(cnn5C)c4)cc(=O)n3c2)CCN1 [compound 553, 2-(1-methyl-1H-indazol-5-yl)-7-[(3S)-3-methylpiperazin-1-yl]-4H-pyrido[1,2-a]pyrimidin-4-one] | 3 to 33
14 | Cc1cn2cc(-c3cc(=O)n4cc(C5CCN(C)CC5)ncc4n3)cc(C)c2n1 [compound 592, 2-(2,8-dimethylimidazo[1,2-a]pyridin-6-yl)-7-(1-methylpiperidin-4-yl)-4H-pyrazino[1,2-a]pyrimidin-4-one] | 3 to 33
15 | CCN1CCC(c2cn3c(=O)cc(-c4cc(C)c5nc(C)cn5c4)nc3cn2)CC1 [compound 593, 2-(2,8-dimethylimidazo[1,2-a]pyridin-6-yl)-7-(1-ethylpiperidin-4-yl)-4H-pyrazino[1,2-a]pyrimidin-4-one] | 1 to 3
16 | O=c1cc(-c2cn[nH]c2)nc2ccc(N3CCNCC3)cn12 [compound 855, 7-(piperazin-1-yl)-2-(1H-pyrazol-4-yl)-4H-pyrido[1,2-a]pyrimidin-4-one hydrochloride (1:1)] | 3 to 33
17 | CCN1CCC(c2cc(C)c3nc(-c4cc5c(C)nc(C)cn5n4)cc(=O)n3c2)CC1 [compound 702, 2-(4,6-dimethylpyrazolo[1,5-a]pyrazin-2-yl)-7-(1-ethylpiperidin-4-yl)-9-methyl-4H-pyrido[1,2-a]pyrimidin-4-one] | 1 to 3
18 | Cc1nc2ccc(-c3cc(=O)n4cc(C5=CCNCC5)ccc4n3)cc2o1 [compound 302, 2-(2-methyl-1,3-benzoxazol-6-yl)-7-(1,2,3,6-tetrahydropyridin-4-yl)-4H-pyrido[1,2-a]pyrimidin-4-one] | 0.1 to 0.5

Row | SMILES | IC50 [µM]
19 | Cc1ccc2nc(-c3cc(=O)n4cc(N5CCNCC5)ccc4n3)cn2c1 [compound 29, 2-(6-methylimidazo[1,2-a]pyridin-2-yl)-7-(piperazin-1-yl)-4H-pyrido[1,2-a]pyrimidin-4-one] | 3 to 33
20 | CCc1nc(C)cn2nc(-c3cc(=O)n4cc(N5CCCN(C)CC5)ccc4n3)cc12 [compound 636, 2-(4-ethyl-6-methylpyrazolo[1,5-a]pyrazin-2-yl)-7-(4-methyl-1,4-diazepan-1-yl)-4H-pyrido[1,2-a]pyrimidin-4-one] | 3 to 33
21 | Cc1cn2nc(-c3cc(=O)n4cc(N5CCC6C(CCN6CCO)C5)ccc4n3)cc2c(C)n1 (centres unmarked) [compound 624, 2-(4,6-dimethylpyrazolo[1,5-a]pyrazin-2-yl)-7-[1-(2-hydroxyethyl)octahydro-5H-pyrrolo[3,2-c]pyridin-5-yl]-4H-pyrido[1,2-a]pyrimidin-4-one] | 0.5 to 1
22 | CCc1nc(C)cn2nc(-c3cc(=O)n4cc(N5CCC(N(C)C)CC5)ccc4n3)cc12 [compound 550, 7-[4-(dimethylamino)piperidin-1-yl]-2-(4-ethyl-6-methylpyrazolo[1,5-a]pyrazin-2-yl)-4H-pyrido[1,2-a]pyrimidin-4-one] | 3 to 33
23 | Cc1cn2cc(-c3cc(=O)n4cc(C5=CCN(C(C)C)CC5)ncc4n3)cc2c(C)n1 [compound 479, 2-(1,3-dimethylpyrrolo[1,2-a]pyrazin-7-yl)-7-[1-(propan-2-yl)-1,2,3,6-tetrahydropyridin-4-yl]-4H-pyrazino[1,2-a]pyrimidin-4-one] | 3 to 33
24 | Cc1cn2nc(-c3cc(=O)n4cc(C5=CCNCC5)cc(C)c4n3)cc2c(C)n1 [compound 480, 2-(4,6-dimethylpyrazolo[1,5-a]pyrazin-2-yl)-9-methyl-7-(1,2,3,6-tetrahydropyridin-4-yl)-4H-pyrido[1,2-a]pyrimidin-4-one] | 0.1 to 0.5
25 | CCCc1nc(C)cn2nc(-c3cc(=O)n4cc(N5CCN[C@H](C)C5)ccc4n3)cc12 [compound 727, 7-[(3R)-3-methylpiperazin-1-yl]-2-(6-methyl-4-propylpyrazolo[1,5-a]pyrazin-2-yl)-4H-pyrido[1,2-a]pyrimidin-4-one] | 3 to 33
26 | Cc1cn2nc(-c3cc(=O)n4cc(N5C[C@@H](C)N(C)[C@@H](C)C5)ccc4n3)cc2c(C)n1 [compound 259, 2-(4,6-dimethylpyrazolo[1,5-a]pyrazin-2-yl)-7-[(3R,5S)-3,4,5-trimethylpiperazin-1-yl]-4H-pyrido[1,2-a]pyrimidin-4-one] | 3 to 33
27 | CCN1CC=C(c2ccc3nc(-c4ccc5nn(C)cc5c4)cc(=O)n3c2)CC1 [compound 477, 7-(1-ethyl-1,2,3,6-tetrahydropyridin-4-yl)-2-(2-methyl-2H-indazol-5-yl)-4H-pyrido[1,2-a]pyrimidin-4-one] | 1 to 3
28 | Cc1cn2cc(-c3cc(=O)n4cc(N5C[C@@H](C)N[C@@H](C)C5)ccc4n3)cc(C(F)(F)F)c2n1 [compound 736, 7-[(3R,5S)-3,5-dimethylpiperazin-1-yl]-2-[2-methyl-8-(trifluoromethyl)imidazo[1,2-a]pyridin-6-yl]-4H-pyrido[1,2-a]pyrimidin-4-one] | 3 to 33
29 | Cc1cc(-c2cc(=O)n3cc(C4CCNCC4)nc(C)c3n2)cc2cn(C)nc12 [compound 871, 2-(2,7-dimethyl-2H-indazol-5-yl)-9-methyl-7-(piperidin-4-yl)-4H-pyrazino[1,2-a]pyrimidin-4-one hydrochloride (1:1)] | < 0.1
30 | Cc1cc(-c2cc(=O)n3cc(N4CCNCC4)ccc3n2)cc2cn(C)nc12 [compound 738, 2-(2,7-dimethyl-2H-indazol-5-yl)-7-(piperazin-1-yl)-4H-pyrido[1,2-a]pyrimidin-4-one] | 0.1 to 0.5
31 | CCc1cn2cc(-c3cc(=O)n4cc(N5CCNCC5)ccc4n3)ccc2n1 [compound 124, 2-(2-ethylimidazo[1,2-a]pyridin-6-yl)-7-(piperazin-1-yl)-4H-pyrido[1,2-a]pyrimidin-4-one] | 3 to 33
32 | CC(C)N1CCC(c2ccc3nc(-c4ccc5nn(C)cc5c4)cc(=O)n3c2)CC1 [compound 608, 2-(2-methyl-2H-indazol-5-yl)-7-[1-(propan-2-yl)piperidin-4-yl]-4H-pyrido[1,2-a]pyrimidin-4-one] | 0.5 to 1
33 | Cc1cn2cc(-c3cc(=O)n4cc(N5CCN[C@@H](C)C5)ccc4n3)nc2cn1 [compound 75, 2-(6-methylimidazo[1,2-a]pyrazin-2-yl)-7-[(3S)-3-methylpiperazin-1-yl]-4H-pyrido[1,2-a]pyrimidin-4-one] | 1 to 3
34 | Cc1cc(-c2cc(=O)n3cc(C4CCN(C)CC4)ccc3n2)cc2cn(C)nc12 [compound 752, 2-(2,7-dimethyl-2H-indazol-5-yl)-7-(1-methylpiperidin-4-yl)-4H-pyrido[1,2-a]pyrimidin-4-one] | 0.1 to 0.5
35 | Cc1cc(-c2cc(=O)n3cc(N4CCN[C@@H](C)C4)ccc3n2)cc2cnn(C)c12 [compound 777, 2-(1,7-dimethyl-1H-indazol-5-yl)-7-[(3S)-3-methylpiperazin-1-yl]-4H-pyrido[1,2-a]pyrimidin-4-one] | 3 to 33
